Source: the supplement of paper PMC10307832

Key:
Assay in all cases: relative viability (nuclei count vs DMSO), 5 days (fraction); higher = more cells survive
LU99A = test system: LU99A
Summary of the method: (§1)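 Lung cancer cell lines in 1536-well plates got either a single drug or a fixed anchor-drug dose together with five library-drug doses (not always all listed) in √10 steps, by pin tool, on the day after seeding. Nuclei were counted after 5 days, and relative viability is the treated-to-vehicle ratio of nuclei counts. Values are medians of duplicate plates.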

NCI-H322M = test system: NCI-H322M
Summary of the method: as §1

NCI-H661 = test system: NCI-H661
Summary of the method: as §1

NCI-H1651 = test system: NCI-H1651
Summary of the method: as §1

LC-2-ad = test system: LC-2-ad
Summary of the method: as §1

NCI-H2087 = test system: NCI-H2087
Summary of the method: as §1

H3255 = test system: H3255
Summary of the method: as §1

ChaGo-K-1 = test system: ChaGo-K-1
Summary of the method: as §1

LXF-289 = test system: LXF-289
Summary of the method: as §1

PC-3 [JPC-3] = test system: PC-3 [JPC-3]
Summary of the method: as §1

NCI-H1944 = test system: NCI-H1944
Summary of the method: as §1

NCI-H358 = test system: NCI-H358
Summary of the method: as §1

NCI-H838 = test system: NCI-H838
Summary of the method: as §1

NCI-H596 = test system: NCI-H596
Summary of the method: as §1

LK-2 = test system: LK-2
Summary of the method: as §1

NCI-H1666 = test system: NCI-H1666
Summary of the method: as §1

LCLC-97TM1 = test system: LCLC-97TM1
Summary of the method: as §1

HCC-78 = test system: HCC-78
Summary of the method: as §1

BEN = test system: BEN
Summary of the method: as §1

NCI-H2342 = test system: NCI-H2342
Summary of the method: as §1

UMC-11 = test system: UMC-11
Summary of the method: as §1

HCC-15 = test system: HCC-15
Summary of the method: as §1

NCI-H650 = test system: NCI-H650
Summary of the method: as §1

SK-MES-1 = test system: SK-MES-1
Summary of the method: as §1

## COc1cc(N2CCC(C(N)=O)CC2)ccc1Nc1nc(N)c(Cl)c(Nc2ccccc2S(=O)(=O)C(C)C)n1 [HG-5-88-01] + O=C(CCCCCCC(=O)Nc1ccccc1)NO [Vorinostat] (partner 1 µM)
LU99A; first compound 0.04 µM
  relative viability: 0.442
LU99A; first compound 0.1265 µM
  relative viability: 0.454
LU99A; first compound 0.4 µM
  relative viability: 0.522
LU99A; first compound 1.265 µM
  relative viability: 0.55
LU99A; first compound 4 µM
  relative viability: 0.436
NCI-H322M; first compound 0.04 µM
  relative viability: 0.864
NCI-H322M; first compound 0.1265 µM
  relative viability: 0.809
NCI-H322M; first compound 0.4 µM
  relative viability: 0.782
NCI-H322M; first compound 1.265 µM
  relative viability: 0.668
NCI-H322M; first compound 4 µM
  relative viability: 0.706
NCI-H661; first compound 0.04 µM
  relative viability: 0.793
NCI-H661; first compound 0.1265 µM
  relative viability: 0.791
NCI-H661; first compound 0.4 µM
  relative viability: 0.771
NCI-H661; first compound 1.265 µM
  relative viability: 0.761
NCI-H661; first compound 4 µM
  relative viability: 0.856
NCI-H1651; first compound 0.04 µM
  relative viability: 0.509
NCI-H1651; first compound 0.1265 µM
  relative viability: 0.57
NCI-H1651; first compound 0.4 µM
  relative viability: 0.572
NCI-H1651; first compound 1.265 µM
  relative viability: 0.552
NCI-H1651; first compound 4 µM
  relative viability: 0.528
LC-2-ad; first compound 0.04 µM
  relative viability: 0.804
LC-2-ad; first compound 0.1265 µM
  relative viability: 0.75
LC-2-ad; first compound 0.4 µM
  relative viability: 0.745
LC-2-ad; first compound 1.265 µM
  relative viability: 0.674
LC-2-ad; first compound 4 µM
  relative viability: 0.579
NCI-H2087; first compound 0.04 µM
  relative viability: 0.74
NCI-H2087; first compound 0.1265 µM
  relative viability: 0.692
NCI-H2087; first compound 0.4 µM
  relative viability: 0.592
NCI-H2087; first compound 1.265 µM
  relative viability: 0.928
NCI-H2087; first compound 4 µM
  relative viability: 0.76
H3255; first compound 0.04 µM
  relative viability: 0.77
H3255; first compound 0.1265 µM
  relative viability: 0.907
H3255; first compound 0.4 µM
  relative viability: 0.729
H3255; first compound 4 µM
  relative viability: 0.741
ChaGo-K-1; first compound 0.04 µM
  relative viability: 0.75
ChaGo-K-1; first compound 0.1265 µM
  relative viability: 0.71
ChaGo-K-1; first compound 0.4 µM
  relative viability: 0.737
ChaGo-K-1; first compound 1.265 µM
  relative viability: 0.786
ChaGo-K-1; first compound 4 µM
  relative viability: 0.589
LXF-289; first compound 0.04 µM
  relative viability: 0.93
LXF-289; first compound 0.1265 µM
  relative viability: 0.754
LXF-289; first compound 0.4 µM
  relative viability: 0.826
LXF-289; first compound 1.265 µM
  relative viability: 0.847
LXF-289; first compound 4 µM
  relative viability: 0.822
PC-3 [JPC-3]; first compound 0.04 µM
  relative viability: 0.879
PC-3 [JPC-3]; first compound 0.1265 µM
  relative viability: 0.756
PC-3 [JPC-3]; first compound 0.4 µM
  relative viability: 0.58
PC-3 [JPC-3]; first compound 1.265 µM
  relative viability: 0.724
PC-3 [JPC-3]; first compound 4 µM
  relative viability: 0.303
NCI-H1944; first compound 0.04 µM
  relative viability: 0.623
NCI-H1944; first compound 0.1265 µM
  relative viability: 0.627
NCI-H1944; first compound 0.4 µM
  relative viability: 0.645
NCI-H1944; first compound 1.265 µM
  relative viability: 0.55
NCI-H1944; first compound 4 µM
  relative viability: 0.568
NCI-H358; first compound 0.04 µM
  relative viability: 0.666
NCI-H358; first compound 0.1265 µM
  relative viability: 0.602
NCI-H358; first compound 0.4 µM
  relative viability: 0.544
NCI-H358; first compound 1.265 µM
  relative viability: 0.155
NCI-H358; first compound 4 µM
  relative viability: 0.182
NCI-H838; first compound 0.04 µM
  relative viability: 0.745
NCI-H838; first compound 0.1265 µM
  relative viability: 0.707
NCI-H838; first compound 0.4 µM
  relative viability: 0.651
NCI-H838; first compound 1.265 µM
  relative viability: 0.596
NCI-H838; first compound 4 µM
  relative viability: 0.53
NCI-H596; first compound 0.04 µM
  relative viability: 0.604
NCI-H596; first compound 0.1265 µM
  relative viability: 0.597
NCI-H596; first compound 0.4 µM
  relative viability: 0.641
NCI-H596; first compound 1.265 µM
  relative viability: 0.571
NCI-H596; first compound 4 µM
  relative viability: 0.532
LK-2; first compound 0.04 µM
  relative viability: 0.326
LK-2; first compound 0.1265 µM
  relative viability: 0.411
LK-2; first compound 0.4 µM
  relative viability: 0.466
LK-2; first compound 4 µM
  relative viability: 0.306
NCI-H1666; first compound 0.04 µM
  relative viability: 0.984
NCI-H1666; first compound 0.1265 µM
  relative viability: 1
NCI-H1666; first compound 0.4 µM
  relative viability: 0.975
NCI-H1666; first compound 1.265 µM
  relative viability: 0.92
NCI-H1666; first compound 4 µM
  relative viability: 0.828
LCLC-97TM1; first compound 0.04 µM
  relative viability: 0.75
LCLC-97TM1; first compound 0.1265 µM
  relative viability: 0.757
LCLC-97TM1; first compound 0.4 µM
  relative viability: 0.62
LCLC-97TM1; first compound 1.265 µM
  relative viability: 0.645
LCLC-97TM1; first compound 4 µM
  relative viability: 0.126
HCC-78; first compound 0.04 µM
  relative viability: 0.467
HCC-78; first compound 0.1265 µM
  relative viability: 0.357
HCC-78; first compound 0.4 µM
  relative viability: 0.356
HCC-78; first compound 1.265 µM
  relative viability: 0.206
HCC-78; first compound 4 µM
  relative viability: 0.217
BEN; first compound 0.04 µM
  relative viability: 0.555
BEN; first compound 0.1265 µM
  relative viability: 0.624
BEN; first compound 0.4 µM
  relative viability: 0.591
BEN; first compound 1.265 µM
  relative viability: 0.552
BEN; first compound 4 µM
  relative viability: 0.532
NCI-H2342; first compound 0.04 µM
  relative viability: 0.654
NCI-H2342; first compound 0.1265 µM
  relative viability: 0.961
NCI-H2342; first compound 0.4 µM
  relative viability: 0.737
NCI-H2342; first compound 4 µM
  relative viability: 0.945
UMC-11; first compound 0.04 µM
  relative viability: 0.437
UMC-11; first compound 0.1265 µM
  relative viability: 0.442
UMC-11; first compound 0.4 µM
  relative viability: 0.354
UMC-11; first compound 1.265 µM
  relative viability: 0.33
UMC-11; first compound 4 µM
  relative viability: 0.288
HCC-15; first compound 0.04 µM
  relative viability: 0.822
HCC-15; first compound 0.1265 µM
  relative viability: 0.916
HCC-15; first compound 0.4 µM
  relative viability: 0.761
HCC-15; first compound 1.265 µM
  relative viability: 0.833
HCC-15; first compound 4 µM
  relative viability: 0.786
NCI-H650; first compound 0.04 µM
  relative viability: 0.409
NCI-H650; first compound 0.1265 µM
  relative viability: 0.402
NCI-H650; first compound 0.4 µM
  relative viability: 0.386
NCI-H650; first compound 1.265 µM
  relative viability: 0.424
NCI-H650; first compound 4 µM
  relative viability: 0.29
SK-MES-1; first compound 0.04 µM
  relative viability: 1.14
SK-MES-1; first compound 0.1265 µM
  relative viability: 1.03
SK-MES-1; first compound 0.4 µM
  relative viability: 1.1
SK-MES-1; first compound 1.265 µM
  relative viability: 0.979
SK-MES-1; first compound 4 µM
  relative viability: 1.21
